Consider 14 compounds from US9884863B2, “STAT3 inhibitor” (Board of Regents, The University of Texas System, priority 2013, dated 2018).

One may read the IC50 as the concentration at which inhibition is half-maximal.

Assay type in all cases: cell-based, human
In assay [1] the test system is MCF-7. In words: MTS cell proliferation assay, MCF-7. The following applies: for IC50: Homo sapiens; for inhibition on breast cancer cell proliferation (FIG. 1): MCF-7, 48 hr, μM concentrations. The procedure:
Cancer cells (breast cancer cell lines MCF-7, MDA-MB-361, SKBR3 and MDA-MB-231, pancreatic cancer cell lines AsPC-1. […] Proliferation was measured by treating cells with the 3-(4,5-dimethylthiazol-2-yl)-5-(3-carboxymethoxyphenyl)-2-(4-sulfophenyl)-2H-tetrazolium) (MTS) in a CellTiter 96t AQueous Non-Radioactive Cell Proliferation Assay kit from Promega, Madison, Wis., USA). Absorbance of all wells was determined by measuring OD at 550 nm after 1 hr incubation at 37° C. on a 96-well iMark™ Microplate Absorbance Reader (BioRad, Hercules, Calif.). Each individual compound was tested in quadruplicate wells for each concentration, and the results were reported as mean absorption±s.e.
In Vitro Determination of Effects of Synthesized Compounds on Cancer Cell Proliferation. Cancer cells (breast cancer cell lines MCF-7 and MDA-MB-231, pancreatic cancer cell lines AsPC-1 and Panc-1) were […], 0.01, 0.1, 1, 5, 10, […] Proliferation was measured by treating cells with the 3-(4,5-dimethylthiazol-2-yl)-5-(3-carboxymethoxyphenyl)-2-(4-sulfophenyl)-2H-tetrazolium) (MTS) in a CellTiter 96t Aqueous Non-Radioactive Cell Proliferation Assay kit (Promega, Madison, Wis., USA). Absorbance of all wells was determined by measuring OD at 550 nm after 1 h incubation at 37° C. on a 96-well iMark™ Microplate Absorbance Reader (BioRad, Hercules, Calif.). Each individual compound was tested in quadruplicate wells for each concentration.
(In general: Tetrazolium assays rely on reduction of a dye to a coloured formazan, in cell work by metabolically active cells.)

The subject of assay [2] is AsPC1. In words: MTS cell proliferation assay, AsPC1. The following applies: Homo sapiens, ASPC1. The procedure: (§1) Cancer cells (breast cancer cell lines MCF-7, MDA-MB-361, SKBR3 and MDA-MB-231, pancreatic cancer cell lines AsPC-1. BxPC3 and Panc-1) were seeded in 96-well plates at a density of 1000-2000 cells/well and treated with DMSO, 0.01, 0.1, 1, 5, 10, and […] of STAT3 individual inhibitors for 72 hrs. Proliferation was measured by treating cells with the 3-(4,5-dimethylthiazol-2-yl)-5-(3-carboxymethoxyphenyl)-2-(4-sulfophenyl)-2H-tetrazolium) (MTS) in a CellTiter 96t AQueous Non-Radioactive Cell Proliferation Assay kit from Promega, Madison, Wis., USA). Absorbance of all wells was determined by measuring OD at 550 nm after 1 hr incubation at 37° C. on a 96-well iMark™ Microplate Absorbance Reader (BioRad, Hercules, Calif.). Each individual compound was tested in quadruplicate wells for each concentration, and the results were reported as mean absorption±s.e.
(§2) In Vitro Determination of Effects of Synthesized Compounds on Cancer Cell Proliferation. Cancer cells (breast cancer cell lines MCF-7 and MDA-MB-231, pancreatic cancer cell lines AsPC-1 and Panc-1) were seeded in 96-well plates at a density of 2×10^3 cells/well and treated with DMSO, 0.01, 0.1, 1, 5, 10, and 100 μM of individual STAT3 inhibitors for 72 h. Proliferation was measured by treating cells with the 3-(4,5-dimethylthiazol-2-yl)-5-(3-carboxymethoxyphenyl)-2-(4-sulfophenyl)-2H-tetrazolium) (MTS) in a CellTiter 96t Aqueous Non-Radioactive Cell Proliferation Assay kit (Promega, Madison, Wis., USA). Absorbance of all wells was determined by measuring OD at 550 nm after 1 h incubation at 37° C. on a 96-well iMark™ Microplate Absorbance Reader (BioRad, Hercules, Calif.). Each individual compound was tested in quadruplicate wells for each concentration.

For assay [3], the system named is MDA-MB-231. In words: MTS cell proliferation assay, MDA-MB-231. The conditions noted are these: Homo sapiens, MDA-MB-231, >10 = no effect. The procedure: as §1, with “Calif.).” for “Calif.). Each individual compound was tested in quadruplicate wells for each concentration, and the results were reported as mean absorption±s.e.”
as §2, with “concentration. […]” for “concentration.”

Assay [4] has as its system Panc-1. Put plainly: MTS cell proliferation assay, Panc-1. The following applies: Homo sapiens, PANC-1. The procedure: as §1, §2
Where [5] appears, read: MCF7, 72 h, read-out: IC50 MCF-7 (Table 1).
Where [6] appears, read: pancreatic cancer, 72 hrs, >10 = no effect, read-out: IC50 AsPC1 (Table 1).
Setting [7] is: ER-negative breast cancer, 72 hrs, read-out: IC50 MDA-MB-231 (Table 1).
Where [8] appears, read: pancreatic cancer, 72 hrs, >10 = no effect, read-out: IC50 Panc-1 (Table 1).
Setting [9] is: MCF7, Example 4 numbering, 72 h, >10 = no effect, read-out: IC50 MCF-7 (Table 4).
Setting [10] is: Example 4 numbering, 72 h, >10 = no effect, read-out: IC50 AsPC1 (Table 4).
[11] abbreviates: Example 4 numbering, 72 h, read-out: IC50 MDA-MB-231 (Table 4).
Setting [12] is: Example 4 numbering, 72 h, >10 = no effect, read-out: IC50 Panc-1 (Table 4).
Setting [13] is: MCF7, Table 2 numbering 1-14, >10 = no effect, read-out: IC50 MCF-7 (Table 2).
The mark [14] stands for this setting: Table 2 numbering 1-14, read-out: IC50 AsPC1 (Table 2).
Setting [15] is: Table 2 numbering 1-14, read-out: IC50 MDA-MB-231 (Table 2).
Setting [16] is: Table 2 numbering 1-14, read-out: IC50 Panc-1 (Table 2).

Where two headings read alike, the source gives them in different places.

On to `NCCCOc1ccc(Cl)cc1C(=O)Nc1ccc2c(c1)S(=O)(=O)C=C2` [HJC-4-16, 2-(3-Aminopropoxy)-5-chloro-N-(1,1-dioxo-1H-1λ^6-benzo[b]thiophen-6-yl)benzamide], for which the IC50 in assay [1] (setting [5]) was 1760 nM; in assay [2] (setting [6]), 270 nM; in assay [3] (setting [7]), 1970 nM; in assay [4] (setting [8]), 1880 nM. Moreover, the “inhibition on breast cancer cell proliferation (FIG. 1)” value (from here on “inhibition”) in assay [1] was “significant inhibition”.
In the case of `O=C(Nc1ccc2c(c1)S(=O)(=O)C=C2)c1cc(Cl)ccc1O` [Compd 12], the IC50 was 910 nM in assay [1] (setting [9]), 1920 nM in assay [2] (setting [10]), 1640 nM in assay [3] (setting [11]) and 2340 nM in assay [4] (setting [12]).
`O=C(Nc1ccc2c(c1)S(=O)(=O)C=C2)c1ccnc(-c2ccccc2)c1` [HJC-4-30, N-(1,1-Dioxo-1H-1λ^6-benzo[b]thiophen-6-yl)-2-phenyl-isonicotinamide]: the IC50 turned out to be 3780 nM in assay [1] (setting [5]), 1300 nM in assay [2] (setting [6]), 1850 nM in assay [3] (setting [7]) and 3350 nM in assay [4] (setting [8]). Further, the “inhibition” value in assay [1] is recorded as “significant inhibition”.
As to `NCCCOc1ccc(Cl)cc1C(=O)Nc1ccc([N+](=O)[O-])cc1Cl` [HJC-3-8, 2-(3-Aminopropoxy)-5-chloro-N-(2-chloro-4-nitrophenyl)benzamide], the IC50 was found to be 3110 nM in assay [1] (setting [5]), 4200 nM in assay [2] (setting [6]), 2610 nM in assay [3] (setting [7]) and 3110 nM in assay [4] (setting [8]). The “inhibition” value in assay [1] was “significant inhibition”.
For the compound `O=C(Nc1ccc2c(c1)S(=O)(=O)C=C2)c1cc(Cl)ccc1O` [Compound 1], the concentration for half-maximal inhibition (IC50) came out at 910 nM in assay [1] (setting [13]), 1920 nM in assay [2] (setting [14]), 1640 nM in assay [3] (setting [15]) and 2340 nM in assay [4] (setting [16]).
In the case of `CNCCOc1ccc(Cl)cc1C(=O)Nc1ccc2c(c1)S(=O)(=O)C=C2` [HJC-4-28, 5-Chloro-N-(1,1-dioxo-1H-1λ^6-benzo[b]thiophen-6-yl)-2-(2-methylaminoethoxy)benzamide], the concentration for half-maximal inhibition (IC50) in assay [1] (setting [5]) stood at 3150 nM; in assay [2] (setting [6]), 2050 nM; in assay [3] (setting [7]) it was 3120 nM; in assay [4] (setting [8]), 3090 nM. Moreover, the “inhibition” value in assay [1] is “significant inhibition”.
For the compound `O=C(Nc1ccc2c(c1)S(=O)(=O)C=C2)c1cc(Cl)ccc1OCCN1CCNCC1` [HJC-4-13, 5-Chloro-N-(1,1-dioxo-1H-1λ^6-benzo[b]thiophen-6-yl)-2-(2-piperazin-1-yl-ethoxy) benzamide], the half-maximal inhibitory concentration (IC50) in assay [1] (setting [5]) was 2560 nM; in assay [2] (setting [6]) it was 1870 nM; in assay [3] (setting [7]), 3290 nM; in assay [4] (setting [8]), 3690 nM.
Take `Cc1ccc(S(=O)(=O)Nc2ccc3c(c2)S(=O)(=O)C=C3)cc1` [HJC-3-70, N-(1,1-Dioxo-1H-1λ^6-benzo[b]thiophen-6-yl)-4-methylbenzenesulfonamide]: the IC50 in assay [1] (setting [5]) came to 3240 nM; in assay [2] (setting [6]), 1920 nM; in assay [3] (setting [7]), 2660 nM; in assay [4] (setting [8]), 2890 nM.
Regarding `N#C/C(=C\c1cccc(Br)n1)C(=O)Nc1ccc2c(c1)S(=O)(=O)C=C2` [Compound 10], the IC50 in assay [1] (setting [9]) was 3310 nM; in assay [2] (setting [10]) it was 1540 nM; in assay [3] (setting [11]), 1530 nM; in assay [4] (setting [12]) it was 1640 nM.
Take `C[C@H](NC(=O)c1cc(-c2ccccc2)nc2ccccc12)c1ccccc1` [Compound 8]: the IC50 in assay [1] (setting [9]) was 2240 nM; in assay [2] (setting [10]), greater than 10000 nM; in assay [3] (setting [11]) it was 86000 nM; in assay [4] (setting [12]), greater than 10000 nM.
For `C[C@H](NC(=O)c1cc(Cl)ccc1O)c1ccccc1` [Compound 9], the IC50 in assay [1] (setting [9]) came out at 900 nM; in assay [1] (MCF7, Example 4 numbering, read-out: IC50 MCF-7 (Example 4)), 900 nM; in assay [2] (setting [10]), 7540 nM; in assay [3] (setting [11]), 8880 nM; in assay [4] (setting [12]) it was 8440 nM.
Turning to `N#C/C(=C\c1cccc(Br)n1)C(=O)Nc1ccc2c(c1)S(=O)(=O)C=C2` [HJC-3-71, 3-(6-Bromo-pyridin-2-yl)-2-cyano-N-(1,1-dioxo-1H-1λ^6-benzo[b]thiophen-6-yl)-acrylamide], the IC50 in assay [1] (setting [5]) turned out to be 3310 nM; in assay [2] (setting [6]), 1540 nM; in assay [3] (setting [7]) it was 1530 nM; in assay [4] (setting [8]), 1640 nM. In assay [1], the “inhibition” value is “significant inhibition”.
With `NCCCCCOc1ccc(Cl)cc1C(=O)Nc1ccc([N+](=O)[O-])cc1Cl` [HJC-3-89, 2-(5-Amino-pentyloxy)-5-chloro-N-(2-chloro-4-nitro-phenyl)benzamide], the IC50 in assay [1] (setting [5]) was 3490 nM; in assay [2] (setting [6]) it was 2080 nM; in assay [3] (setting [7]), 3100 nM; in assay [4] (setting [8]), 4670 nM. In assay [1], the “inhibition” value is “significant inhibition”.
`COC1CS(=O)(=O)c2cc(NC(=O)c3cc(Cl)ccc3O)ccc21` (stereo not drawn) [Compound 14]: the IC50 in assay [1] (setting [13]) stood at 6070 nM; in assay [2] (setting [14]), 8460 nM; in assay [3] (setting [15]), 7050 nM; in assay [4] (setting [16]), 8390 nM.
